One may read the IC50 as the concentration that inhibits the measured activity by half. One may read the Papp A→B as how fast a substance crosses the layer from the apical side. What is called AUC(0-t) is exposure summed from dosing to a finite time, without extrapolation to infinity. Read a low AUC(0-t) as low exposure. A word on the Cmax: it is the peak of the concentration-time curve. By clearance is commonly meant the volume of plasma or blood freed of the substance per unit of time. A higher clearance goes with a high capacity for elimination. Broadly, the half-life is the time needed for the level to fall by half in the phase considered. A lower half-life goes with fast loss. The term bioavailability denotes dose-corrected exposure relative to a reference, in per cent. Usually EC50 stands for the concentration at which the effect is half-maximal. A higher EC50 goes with a less potent agent.

In data set [1] the test system is VCaP. Put plainly: Antiproliferative activity against human VCaP cells expressing wild-type androgen receptor assessed as reduction in cell viability incubated for 5 days in presence of R1881 by CellTiter-glo assay. Type of data set: functional, cell-based. The conditions noted are these: 120 h. (In general: Cellular ATP, detected with luciferase, serves as a proxy for viable cell number.)

Data set [2] in a line: Hepatotoxicity in dog assessed as liver necrosis administered orally as single dose for 14 days. Type of data set: toxicity, tissue-based, Canis lupus familiaris. As to conditions: in vivo, po, 336 h, time 14 day.
The nature of data set [3]: Hepatotoxicity in dog assessed as bile degeneration administered orally as single dose for 14 days. In kind it is toxicity, tissue-based, Canis lupus familiaris. The conditions noted are these: in vivo, po, 336 h, time 14 day.
Data set [4] can be described thus: Hepatotoxicity in dog assessed as increase in alanine aminotransferase level administered orally as single dose for 14 days. In kind it is toxicity, Canis lupus familiaris. As to conditions: in vivo, po, 336 h, time 14 day.
A short description of data set [5]: Hepatotoxicity in dog assessed as increase in […] level administered orally as single dose for 14 days. Type of data set: toxicity, Canis lupus familiaris. As to conditions: in vivo, po, 336 h, time 14 day.
Data set [6] in a line: Hepatotoxicity in dog assessed as increase in gamma glutamyl transferase level administered orally as single dose for 14 days. As to conditions: in vivo, po, 336 h, time 14 day. In kind it is toxicity, Canis lupus familiaris.
Data set [7] is described as follows: Drug metabolism in dog liver microsomes assessed as unchanged parent compound at 10 uM incubated for 60 mins in presence of glutathione by LC-MS/MS analysis. In kind it is ADME, Canis lupus familiaris, Microsome. The conditions noted are these: read-out: Drug metabolism.
A short description of data set [8]: Drug metabolism in dog liver microsomes assessed as unchanged parent compound at 10 uM incubated for 60 mins in presence of glutathione and NADPH by LC-MS/MS analysis. Type of data set: ADME, Canis lupus familiaris, Microsome. The conditions noted are these: read-out: Drug metabolism. For orientation: Microsomes from liver hold many membrane-bound enzymes, among them those of drug oxidation.

Data set [9] can be described thus: Apparent passive permeability from apical to basolateral side in MDCK-MDR1 cells in presence P-gp inhibitor. Type of data set: ADME, cell-based, Canis lupus familiaris. The conditions noted are these: dog, MDCK-MDR1, with P-gp inhibitor (name and concentration not stated).
The nature of data set [10]: AUC(0 to last) in CD1 mouse at 10 mg/kg, po. Type of data set: ADME, organism-based. More on the design: route oral, time 0 - last, dose 10 mg/kg. As to conditions: in vivo.
Data set [11] in a line: Cmax in CD1 mouse at 10 mg/kg, po. In kind it is ADME, organism-based. More on the design: route oral, dose 10 mg/kg. As to conditions: in vivo.
Data set [12] in a line: Clearance in CD1 mouse at 2 mg/kg, iv. In kind it is ADME, organism-based. The conditions noted are these: in vivo.
Data set [13] is described as follows: Half life in CD1 mouse at 2 mg/kg, iv. In kind it is ADME, organism-based. As to conditions: in vivo.
Data set [14] is described as follows: Volume of distribution at steady state in CD1 mouse at 2 mg/kg, iv. Type of data set: ADME, organism-based. The conditions noted are these: in vivo, read-out: Vdss.
Data set [15] is described as follows: Oral bioavailability in CD1 mouse at 10 mg/kg. In kind it is ADME, organism-based. As to conditions: in vivo.
Data set [16] has as its target T1, Androgen receptor (Rattus norvegicus) (UniProt P15207).
T1 sequence (whole entry): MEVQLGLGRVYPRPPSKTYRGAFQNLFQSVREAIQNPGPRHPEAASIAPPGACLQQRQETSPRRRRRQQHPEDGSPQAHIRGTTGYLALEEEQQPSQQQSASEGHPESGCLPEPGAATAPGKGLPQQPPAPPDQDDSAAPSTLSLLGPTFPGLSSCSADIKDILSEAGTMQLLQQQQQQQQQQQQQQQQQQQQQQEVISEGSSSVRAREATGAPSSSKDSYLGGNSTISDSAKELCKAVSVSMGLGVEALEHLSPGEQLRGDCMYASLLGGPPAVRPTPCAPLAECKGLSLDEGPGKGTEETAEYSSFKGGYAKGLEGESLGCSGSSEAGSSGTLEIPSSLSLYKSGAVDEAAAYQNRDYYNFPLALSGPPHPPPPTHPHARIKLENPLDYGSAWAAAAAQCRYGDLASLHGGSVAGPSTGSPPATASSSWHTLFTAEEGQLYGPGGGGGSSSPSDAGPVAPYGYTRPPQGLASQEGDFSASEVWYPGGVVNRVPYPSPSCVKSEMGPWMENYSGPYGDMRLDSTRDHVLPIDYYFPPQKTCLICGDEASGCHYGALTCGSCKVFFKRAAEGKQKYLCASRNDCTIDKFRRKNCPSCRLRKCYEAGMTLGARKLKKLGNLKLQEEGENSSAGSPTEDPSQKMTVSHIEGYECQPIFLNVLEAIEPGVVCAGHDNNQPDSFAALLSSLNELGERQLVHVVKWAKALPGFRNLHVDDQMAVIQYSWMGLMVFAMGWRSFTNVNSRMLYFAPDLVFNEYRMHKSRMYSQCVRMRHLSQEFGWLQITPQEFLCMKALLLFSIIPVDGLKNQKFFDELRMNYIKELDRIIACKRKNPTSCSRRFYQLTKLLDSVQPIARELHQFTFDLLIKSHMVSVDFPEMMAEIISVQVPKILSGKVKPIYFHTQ
Put plainly: In vivo antagonist activity at AR in peripubertal castrated male Sprague-Dawley rat assessed as inhibition of testosterone propionate-induced increase in paired cowper's gland weight at 10 mg/kg, po QD for 10 days measured 24 hrs post last dose by Hershberger's assay. As to conditions: time 10.0 day. In kind it is functional, organism-based.

The target of data set [17] is T1, Androgen receptor (Rattus norvegicus). The data set is described as follows: In vivo antagonist activity at AR in peripubertal castrated male Sprague-Dawley rat assessed as inhibition of testosterone propionate-induced increase in seminal vesicle with fluid and coagulating gland weight at 10 mg/kg, po QD for 10 days measured 24 hrs post last dose by Hershberger's assay. Type of data set: functional, organism-based. The conditions noted are these: time 10.0 day.

Data set [18] has the same target. Put plainly: In vivo antagonist activity at AR in peripubertal castrated male Sprague-Dawley rat assessed as inhibition of testosterone propionate-induced increase in glans penis weight at 10 mg/kg, po QD for 10 days measured 24 hrs post last dose by Hershberger's assay. In kind it is functional, organism-based. The conditions noted are these: time 10.0 day.
Data set [19] has the same target. Put plainly: In vivo antagonist activity at AR in peripubertal castrated male Sprague-Dawley rat assessed as inhibition of testosterone propionate-induced increase in ventral prostate weight at 10 mg/kg, po QD for 10 days measured 24 hrs post last dose by Hershberger's assay. In kind it is functional, organism-based. The conditions noted are these: time 10.0 day.

Data set [20] shares this target. The data set is described as follows: In vivo antagonist activity at AR in peripubertal castrated male Sprague-Dawley rat assessed as inhibition of testosterone propionate-induced increase in levator […] complex weight at 10 mg/kg, po QD for 10 days measured 24 hrs post last dose by Hershberger's assay. As to conditions: time 10.0 day. In kind it is functional, organism-based.

Data set [21] deals with liver microsomes (Homo sapiens). The data set is described as follows: Half life in human liver microsomes.
Data set [22] has as its target T2, Androgen receptor (Homo sapiens, UniProt P10275).
T2 sequence (P10275 whole entry): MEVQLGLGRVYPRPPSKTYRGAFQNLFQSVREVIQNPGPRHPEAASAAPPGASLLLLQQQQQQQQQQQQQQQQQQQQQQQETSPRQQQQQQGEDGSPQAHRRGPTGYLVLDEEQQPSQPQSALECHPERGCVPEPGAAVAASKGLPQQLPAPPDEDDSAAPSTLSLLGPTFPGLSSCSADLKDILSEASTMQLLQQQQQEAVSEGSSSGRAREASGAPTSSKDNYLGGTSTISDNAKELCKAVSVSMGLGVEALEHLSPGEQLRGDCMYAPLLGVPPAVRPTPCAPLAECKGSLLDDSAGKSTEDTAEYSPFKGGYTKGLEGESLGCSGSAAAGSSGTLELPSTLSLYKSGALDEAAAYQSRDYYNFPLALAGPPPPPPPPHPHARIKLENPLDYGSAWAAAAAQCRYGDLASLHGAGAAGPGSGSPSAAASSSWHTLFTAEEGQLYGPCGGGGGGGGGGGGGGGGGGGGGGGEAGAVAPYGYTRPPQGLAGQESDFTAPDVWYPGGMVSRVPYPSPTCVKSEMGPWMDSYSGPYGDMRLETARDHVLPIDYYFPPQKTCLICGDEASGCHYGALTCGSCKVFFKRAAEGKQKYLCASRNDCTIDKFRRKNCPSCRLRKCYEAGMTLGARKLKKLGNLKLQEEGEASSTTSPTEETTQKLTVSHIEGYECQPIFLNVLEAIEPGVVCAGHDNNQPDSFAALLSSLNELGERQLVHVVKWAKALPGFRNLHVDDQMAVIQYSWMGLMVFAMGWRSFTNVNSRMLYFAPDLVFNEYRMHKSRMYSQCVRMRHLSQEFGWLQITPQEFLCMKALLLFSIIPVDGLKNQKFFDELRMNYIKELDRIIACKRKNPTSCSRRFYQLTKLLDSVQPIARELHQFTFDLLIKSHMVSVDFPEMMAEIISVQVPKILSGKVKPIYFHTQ
The data set is described as follows: Antagonist activity at AR wild-type (unknown origin) transfected in human LNCAP cells cotransfected with ARE-LUC incubated for 20 to 24 hrs in presence of AR agonist R1881 by steady-glo luciferase reporter gene assay. Type of data set: cell-based. Background: Reporter assays use an easily measured gene product as a stand-in for the process of interest.

Data set [23] deals with T3, Androgen receptor (Homo sapiens), P10275 [F877L].
T3 sequence (whole entry): T2 sequence (P10275 whole entry) with F877L
The data set is described as follows: Antagonist activity at AR F877L mutant (unknown origin) transfected in human LNCAP cells cotransfected with ARE-LUC incubated for 20 to 24 hrs in presence of AR agonist R1881 by steady-glo luciferase reporter gene assay relative to control. Type of data set: cell-based. As to conditions: filed as antagonist, time 20-24 hrs.

The target in data set [24] is T4, Androgen receptor (Homo sapiens, UniProt P10275, F877L).
T4 sequence (P10275 whole entry F877L): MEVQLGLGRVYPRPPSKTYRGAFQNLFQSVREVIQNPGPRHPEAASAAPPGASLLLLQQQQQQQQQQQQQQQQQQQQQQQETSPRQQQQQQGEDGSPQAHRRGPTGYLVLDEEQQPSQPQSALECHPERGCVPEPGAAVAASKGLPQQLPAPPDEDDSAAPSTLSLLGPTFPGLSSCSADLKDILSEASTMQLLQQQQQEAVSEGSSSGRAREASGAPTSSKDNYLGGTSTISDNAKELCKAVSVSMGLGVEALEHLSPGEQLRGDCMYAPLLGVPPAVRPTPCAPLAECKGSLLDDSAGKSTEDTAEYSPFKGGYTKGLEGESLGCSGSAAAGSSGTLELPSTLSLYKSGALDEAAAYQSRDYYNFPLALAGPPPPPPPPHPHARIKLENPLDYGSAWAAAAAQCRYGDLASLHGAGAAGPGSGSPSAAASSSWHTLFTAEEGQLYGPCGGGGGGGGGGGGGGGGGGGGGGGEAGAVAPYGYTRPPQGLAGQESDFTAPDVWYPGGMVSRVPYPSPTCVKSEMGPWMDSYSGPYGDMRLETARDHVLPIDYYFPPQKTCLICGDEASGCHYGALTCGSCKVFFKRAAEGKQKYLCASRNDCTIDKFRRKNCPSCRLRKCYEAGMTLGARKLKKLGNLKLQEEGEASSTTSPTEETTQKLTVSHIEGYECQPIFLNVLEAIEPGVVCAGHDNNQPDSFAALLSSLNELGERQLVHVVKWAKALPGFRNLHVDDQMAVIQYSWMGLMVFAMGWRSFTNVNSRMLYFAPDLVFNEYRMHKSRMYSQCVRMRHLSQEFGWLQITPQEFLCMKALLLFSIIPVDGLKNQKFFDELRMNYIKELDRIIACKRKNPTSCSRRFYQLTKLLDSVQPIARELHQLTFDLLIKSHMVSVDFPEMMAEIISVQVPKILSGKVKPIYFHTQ
Data set [25] has as its target T4, Androgen receptor. This is another data set of the same source.
The target in data set [26] is T1, Androgen receptor (Rattus norvegicus). The conditions noted are these: Sprague-Dawley, dose 30.0 mg/kg, time 10.0 day.
For data set [27] the target is unchanged. The conditions noted are these: Sprague-Dawley, dose 30.0 mg/kg, time 10.0 day. This is another data set of the same source.
Data set [28] has the same target. The conditions noted are these: Sprague-Dawley, dose 30.0 mg/kg, time 10.0 day. The source holds these as a separate data set.
The target is the same in data set [29]. The conditions noted are these: Sprague-Dawley, dose 30.0 mg/kg, time 10.0 day. This is another data set of the same source.
Data set [30] shares this target. As to conditions: Sprague-Dawley, dose 30.0 mg/kg, time 10.0 day. This is another data set of the same source.

Changes are numbered by the printed parent chain. Calls of active or inactive are those of the source. A value given as a limit tells only on which side of the number the result lay.

Take `N#Cc1ncc(N2C(=O)C3(CCC3)N(c3ccc(OC4CCNCC4)cc3)C2=S)cc1C(F)(F)F`: the IC50 in data set [1] was 306 nM. In addition, the Activity result in [2], in data set [3], in [4], in data set [5] and in [6] was “Toxic” throughout. The remaining at 1 h, 10 µM is 100% in [7] and 99.8% in data set [8]. Further, the Papp A→B in data set [9] turned out to be 6.8 ×10⁻⁶ cm/s. Also, the AUC(0-t) in [10] (CD1, mouse) was determined as 10400 ng·h/mL. Moreover, in data set [11], the Cmax came to 1170 nM. Moreover, in data set [12], the clearance came out at 8.3 mL/min/kg. Besides, the half-life was 630 min in [13] and above 180 min in data set [21]. The Vd in data set [14] came to 5.56 L/kg. In data set [15] (CD1, mouse), the bioavailability is 49%. Further, the inhibition result in data set [16], in [17], in data set [18], in data set [19] and in [20] was “Active” each time.
`COc1cc(N2C(=O)C3(CCC3)N(c3ccc(OC4CCN(C)CC4)nc3)C2=S)cnc1C#N`: the IC50 was found to be 162 nM in [22], 277 nM in data set [1] and 102 nM in data set [25]. Besides, in data set [23], the Imax was above 90%. Also, in [9], the Papp A→B was determined as 22.1 ×10⁻⁶ cm/s. In data set [10] (mouse), this compound displayed an AUClast of 6.1 µg·h/mL. Besides, in data set [11], the Cmax came to 1320 nM. Further, the half-life is 252 min in [13] and 135 min in data set [21]. Besides, the Vd in data set [14] turned out to be 2.93 L/kg. This compound returned a F in data set [15] (mouse, 10 mg/kg) of 116%. The same compound yielded an EC50 in [24] of 838 nM. For the same compound, the inhibition result in data set [26], in data set [27], in data set [28], in [29] and in data set [30] was “Active” throughout.

These data come from ChEMBL document CHEMBL4819022, “Discovery of JNJ-63576253: A Clinical Stage Androgen Receptor Antagonist for F877L Mutant and Wild-Type Castration-Resistant Prostate Cancer (mCRPC)” (J Med Chem, 2021).
